Test results as given in the supplement of paper PMC10949913.

Legend:
Conditions in all cases: 48 h
NCI-H295R [1] = assay: area under concentration-response curve (viability) (AUC (a.u.)); higher = less active
Method in brief: (§1)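 Three adrenocortical carcinoma cell lines were seeded at 500–1,000 cells/well in 5 µL medium in 1,536-well plates. 23 nL of each MIPE 5.0 library compound was added at 11 concentrations. After 48 h (per the protocol name), CellTiter-Glo was added for 15 minutes at room temperature and luminescence was read. Signals were normalised per plate to vehicle and empty-well controls. AC50 and area under the curve came from fitted concentration-response curves, keeping only inhibitory or non-responding curve classes.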

CU-ACC1 [2] = assay: as above
Method in brief: as §1

CU-ACC2 [3] = assay: as above
Method in brief: as §1

NCI-H295R [4] = assay: AC50 viability; higher = less potent
Method in brief: as §1

CU-ACC1 [5] = assay: AC50 viability; higher = less potent
Method in brief: as §1

CU-ACC2 [6] = assay: AC50 viability; higher = less potent
Method in brief: as §1

SMILES | area under concentration-response curve (NCI-H295R [1]) | area under concentration-response curve (CU-ACC1 [2]) | area under concentration-response curve (CU-ACC2 [3]) | AC50 viability (NCI-H295R [4]) [µM] | AC50 viability (CU-ACC1 [5]) [µM] | AC50 viability (CU-ACC2 [6]) [µM]
C=CC(=O)Nc1cccc(Nc2nc(Nc3ccc(Oc4ccnc(C(=O)NC)c4)cc3)ncc2F)c1 | 467 | 464 | 596 | 16.6 | 29.5 | 23.5
COc1ccc(N2C(=O)N(c3c(C)cccc3Cl)Cc3cnc(Nc4ccc(C5CCN(C)CC5)cc4OC)nc32)nc1 | 490 | 451 | 511 | 14.8 | 18.6 | 18.6
COc1cc2c(Oc3ccc(NC(=O)C4(C(=O)Nc5ccc(F)cc5)CC4)cc3F)ccnc2cc1OCCCN1CCOCC1 | 436 | 469 | 549 | 6.61 | 10.5 | 9.34
C#Cc1cccc(Nc2ncnc3cc(OC)c(OCCCCCCC(=O)NO)cc23)c1 | 448 | 407 | 450 | 4.68 | 4.68 | 2.95
Cc1cc(Cl)ccc1OCCCC(=O)NO | 495 | 442 | 512 | 20.9 | 20.9 | 18.6
C[C@H]([C@H]1C\C(=C(CO)/C(=O)O1)C)[C@H]2CC[C@H]3[C@@H]4C[C@H]5O[C@]56[C@@H](O)\C=C/C(=O)[C@]6(C)[C@H]4CC[C@]23C | 401 | 270 | 393 | 1.18 | 1.48 | 0.468
Cc1cc(O)c(-c2ccc([C@@H](C)CN(C)C)cc2)c2c1[nH]c(=O)c1sccc12 | 305 | 311 | 346 | 0.295 | 0.235 | 0.166
CC(C)(C)c1cnc(CSc2cnc(NC(=O)C3CCNCC3)s2)o1 | 387 | 386 | 352 | 7.42 | 2.63 | 1.48
COc1cc(N2CCC(N(C)C)CC2)ccc1Nc1ncc(Cl)c(Nc2ccccc2P(C)(C)=O)n1 | 426 | 424 | 419 | 3.72 | 7.42 | 5.25
CCCC1(CCC)CCC2(CCN(CCCN(CC)CC)C2)CC1 | 448 | 309 | 516 | 4.17 | 4.68 | 6.61
CC[C@@]1(O)C[C@H](O[C@H]2C[C@H](N(C)C)[C@H](O[C@H]3C[C@H](O)[C@H](O[C@H]4CCC(=O)[C@H](C)O4)[C@H](C)O3)[C@H](C)O2)c2c(cc3c(c2O)C(=O)c2c(O)cccc2C3=O)[C@H]1C(=O)OC | 523 | 453 | 533 | 16.6 | 23.5 | 16.6
CCCCOc1c(C(=O)c2c(F)cc(C)cc2F)cnc2[nH]ncc12 | 432 | 419 | 407 | 2.35 | 1.48 | 2.09
CC(C)C1NC(=O)C(NC(=O)C2=C3\N=C\4/C(=C(C)\C(=O)\C(=C4C(=O)NC5C(C)OC(=O)C(C(C)C)N(C)C(=O)CN(C)C(=O)C6CCCN6C(=O)C(NC5=O)C(C)C)N)OC3=C(C)C=C2)C(C)OC(=O)C(C(C)C)N(C)C(=O)CN(C)C(=O)C7CCCN7C1=O (centres undefined) | 307 | 230 | 152 | 0.144 | 0.0512 | 0.00812
CCN(CC)CCNC(=O)c1c(C)[nH]c(/C=C2/C(=O)Nc3ccc(-c4csc(-c5ccccc5)n4)cc32)c1C | 453 | 369 | 521 | 7.42 | 13.2 | 9.34
CC(C)c1cc(CNc2nc(Nc3cc(C4CC4)[nH]n3)cc(N3CCN(C)CC3)n2)on1 | 411 | 429 | 325 | 5.9 | 8.33 | 2.95
O=C(CCCCCCC(=O)N/N=C/c1ccc(N(c2ccccc2)c2ccccc2)cc1)NO | 382 | 381 | 371 | 1.18 | 6.61 | 10.5
COc1cc2c(NC3CCN(CC4CCCCC4)CC3)nc(N3CCCN(C(C)C)CC3)nc2cc1OCCCN1CCCCC1 | 449 | 426 | 485 | 16.6 | 20.9 | 10.5
c1cc(Nc2cc(C3CC3)n[nH]2)nc(Nc2ccc3nc[nH]c3c2)n1 | 462 | 419 | 408 | 7.42 | 1.05 | 0.332
CC[C@@H]1C(=O)N(C)c2cnc(Nc3ccc(C(=O)NC4CCN(C)CC4)cc3OC)nc2N1C1CCCC1 | 404 | 412 | 461 | 16.6 | 20.9 | 16.6
O=C(NO)c1cnc(N2C[C@H]3C[C@@H]2CN3c2cc(C(F)(F)F)ccn2)nc1 | 488 | 385 | 538 | 1.66 | 7.42 | 10.5
CCCCC(=O)OCC(=O)[C@]1(O)Cc2c(O)c3c(c(O)c2[C@@H](O[C@H]2C[C@H](NC(=O)C(F)(F)F)[C@H](O)[C@H](C)O2)C1)C(=O)c1c(OC)cccc1C3=O | 537 | 373 | 544 | 16.6 | 7.42 | 9.34
COC(=O)[C@]12CCC(C)(C)C[C@H]1[C@H]3C(=O)\C=C\4[C@@](C)(CC[C@H]5C(C)(C)C(=O)\C(=C/[C@]45C)C#N)[C@]3(C)CC2 | 412 | 402 | 375 | 13.2 | 20.9 | 16.6
CC(C)(O)CC(=O)NCCn1ccc2ncnc(Nc3ccc(Oc4cccc(C(F)(F)F)c4)c(Cl)c3)c21 | 443 | 465 | 472 | 20.9 | 20.9 | 23.5
Fc1ccc2[nH]ccc2c1-c1nc(N2CCOCC2)c2sc(CN3CCN(CC4CC4)CC3)cc2n1 | 487 | 482 | 462 | 20.9 | 18.6 | 26.3
C=CC(=O)Nc1cc2c(Nc3ccc(F)c(Cl)c3)ncnc2cc1C#CC(C)(C)N1CCN(C)CC1 | 477 | 307 | 520 | 7.42 | 10.5 | 7.42

SMILES | area under concentration-response curve (NCI-H295R [1]) | area under concentration-response curve (CU-ACC1 [2]) | area under concentration-response curve (CU-ACC2 [3]) | AC50 viability (NCI-H295R [4]) [µM] | AC50 viability (CU-ACC1 [5]) [µM] | AC50 viability (CU-ACC2 [6]) [µM]
CC1=NN=C(C[C@@H]2\C=C(C3=CC=C(Cl)C=C3)/C4=CC=CC=C4[N]5C(=NN=C25)C)O1 | 368 | 433 | 447 | 5.25 | 5.9 | 3.32
CO[C@@H]1[C@@H](O)[C@H](O)[C@@H](n2c3c(Cl)cccc3c3c4c(c5c6cccc(Cl)c6[nH]c5c32)C(=O)NC4=O)O[C@H]1CO | 494 | 461 | 438 | 2.63 | 3.32 | 8.33
CCCCCCC(C)(C)C1=CC2=C([C@H]3CC(=C/CC3C(C)(C)O2)\CO)C(=C1)O (some centres undefined) | 458 | 442 | 497 | 4.17 | 5.9 | 5.9
Nc1cc(C(F)(F)F)c(-c2cc(N3CCOCC3)nc(N3CCOCC3)n2)cn1 | 449 | 400 | 539 | 2.63 | 9.34 | 4.68
CC1(C)CC(=O)c2c(C(F)(F)F)nn(-c3ccc(C(N)=O)c(NC4CCC(O)CC4)c3)c2C1 (centres undefined) | 455 | 359 | 416 | 0.833 | 1.05 | 0.295
Cc1cc(OCCCc2c3n(c4c(-c5c(C)nn(C)c5C)c(Cl)ccc24)[C@H](C)CN(c2cn(C)c4ccc(C(=O)O)cc24)C3=O)cc(C)c1Cl | 445 | 367 | 570 | 2.95 | 16.6 | 16.6
O=C(CCCCCCNC(=O)c1cnc(N(c2ccccc2)c2ccccc2)nc1)NO | 525 | 364 | 552 | 20.9 | 18.6 | 11.8
C[C@@H]1O[C@@H](O[C@H]2C[C@@H](O)[C@]3(CO)[C@H]4[C@H](O)C[C@]5(C)[C@H](CC[C@]5(O)[C@@H]4CC[C@]3(O)C2)C/6=C/C(=O)OC6)[C@H](O)[C@H](O)[C@H]1O | 264 | 215 | 335 | 0.0934 | 0.0263 | 0.0468
N#C/C(=C1/Nc2ccccc2S1)c1ccnc(OCc2ccc(CN3CCOCC3)cc2)n1 | 429 | 434 | 426 | 11.8 | 4.68 | 18.6
ClC1=CC\2=C(NC(=O)\C(=C2N[C@@H]3CN4CCC3CC4)C5=NC6=C([NH]5)C=CC=C6)C=C1 | 404 | 404 | 365 | 0.118 | 16.6 | 5.25
CCc1cc(-c2n[nH]c(C)c2-c2ccc3c(c2)OCCO3)c(O)cc1O | 565 | 529 | 611 | 20.9 | 23.5 | 23.5
CN[S+](=O)([O-])c1ccc2c(c1)/C(=C/c1[nH]c3c(c1CCCN1CCN(C)CC1)CCCC3)C(=O)N2 | 458 | 440 | 504 | 16.6 | 23.5 | 16.6
NC1(CCC1)C2=CC=C(C=C2)C3=C(C=C/4C(=N3)\C=C/N5C(=O)N\N=C45)C6=CC=CC=C6 | 404 | 442 | 523 | 16.6 | 9.34 | 18.6
Cc1ccc([S+](=O)([O-])Nc2cc(C(F)(F)F)ccc2C(=O)Nc2nc(-c3ccccc3)cs2)cc1 | 479 | 436 | 499 | 8.33 | 10.5 | 8.33
Cc1ccc(C(=O)Nc2cccc(C(F)(F)F)c2)cc1Nc1nc(-c2cccnc2)nc2c1cnn2C | 477 | 440 | 515 | 18.6 | 23.5 | 20.9
C[C@@H]1CN[C@H]2[C@@H](C)[C@@]3(CC[C@H]4[C@@H]5CC[C@@H]6C[C@@H](CC[C@]6(C)[C@H]5C\C4=C(C)\C3)N[S+](C)([O-])=O)O[C@@H]2C1 | 504 | 467 | 539 | 14.8 | 16.6 | 20.9
Cn1cc(-c2ccc([S+](=O)([O-])n3ccc(/C=C/C(=O)Nc4ccccc4N)c3)cc2)cn1 | 352 | 377 | 464 | 5.25 | 13.2 | 9.34
CN[C@H]1CC[C@@H](c2ccc(Cl)c(Cl)c2)c2ccccc21 | 394 | 386 | 438 | 11.8 | 10.5 | 16.6
COCCOc1ccc2c(c1)ncn2-c1ccc2cccc(N3CCC(N)CC3)c2n1 | 420 | 409 | 370 | 6.61 | 16.6 | 10.5
COC1=CC=C(C(=C1)OC(C)C)C/2=N/[C@@H]([C@@H](N2C(=O)N3CCNC(=O)C3)C4=CC=C(Cl)C=C4)C5=CC=C(Cl)C=C5 | 288 | 290 | 291 | 10.5 | 11.8 | 14.8
COc1cc(-c2nn(C3CCC(N4CCN(C(C)=O)CC4)CC3)c3ncnc(N)c23)ccc1NC(=O)c1cc2ccccc2n1C (centres undefined) | 460 | 418 | 512 | 9.34 | 8.33 | 10.5
CC/1=C/C[C@]23O[C@@]2(C)CC[C@@H]4[C@H](OC(=O)C4=C)[C@@H]13 | 435 | 447 | 509 | 18.6 | 14.8 | 16.6
CCC(C1CCC(C)C(O1)C(C)C(O)C(C)C(=O)C(CC)C2OC\3(O[C@]4(CC[C@@](C)(O4)C5CC[C@@](O)(CC)C(C)O5)C(O)\C=C3)C(C)CC2C)C([O-])=O (some centres undefined) | 456 | 291 | 473 | 8.33 | 5.25 | 5.9
CN1CCN(C(=O)c2ccc3cc(CCNc4ncnc5ccc(C#N)cc45)ccc3c2)CC1 | 436 | 397 | 499 | 2.95 | 4.17 | 16.6
